Data from patent EP0475531A1, “Benzoic acid phenylester compounds and elastase inhibiting compositions containing the same” (Asahi Kasei Kogyo Kabushiki Kaisha, priority 1990, dated 1992).

Biological target: T1, human leukocyte elastase (Homo sapiens, UniProt P08246)
T1 sequence (P08246 30-267): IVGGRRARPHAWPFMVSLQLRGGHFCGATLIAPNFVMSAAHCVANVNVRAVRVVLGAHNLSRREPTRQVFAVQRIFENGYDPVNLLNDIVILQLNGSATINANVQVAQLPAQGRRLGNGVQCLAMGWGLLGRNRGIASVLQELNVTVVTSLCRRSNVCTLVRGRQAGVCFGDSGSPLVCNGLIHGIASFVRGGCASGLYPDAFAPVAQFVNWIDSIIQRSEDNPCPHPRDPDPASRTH
Assay: in vitro human leukocyte elastase inhibiting activity (fluorogenic substrate, method of JP-A-2-101017 with slight modification)
Type: biochemical
Conditions: 50% inhibitory concentration; substrate methoxysuccinyl-Ala-Ala-Pro-Val-7-amido-4-methylcoumarin; 0.2 M Tris-hydrochloride buffer (0.02 M CaCl2, 0.005% Triton X-100), pH 7.2; compound and enzyme incubated at 25°C for 20 minutes; read-out: IC50
Method: Thus, methoxysuccinyl-Ala-Ala-Pro-Val-7-amido-4-methylcoumarin was used as a substrate for human leukocyte elastase and the 50% inhibitory concentration (IC₅₀) was measured. The enzymatic reaction was carried out in 0.2 M Tris-hydrochloride buffer (containing 0.02 M CaCl₂ and 0.005% Triton X-100) at pH 7.2. Each mixture of test compound solution and the enzyme solution was incubated at 25°C for 20 minutes.

IC50 | Structure (SMILES)
260 nM | O=C(Oc1cc(Cl)cc(Cl)c1)c1ccc(NS(=O)(=O)c2ccccc2)cc1 [Compound 25, 3,5-dichlorophenyl 4-(benzenesulfonylamino)benzoate]
79 nM | O=C(Cc1cccs1)Nc1ccc(C(=O)Oc2cc(Cl)cc(Cl)c2)cc1 [Compound 37, 3,5-dichlorophenyl 4-(2-thienylacetylamino)benzoate]
23 nM | O=C(O)CCC(=O)Nc1ccc(C(=O)Oc2cc(Cl)cc(Cl)c2)cc1 [Compound 22, 3,5-dichlorophenyl 4-(succinylamino)benzoate]
37 nM | CC1(C(=O)Nc2ccc(C(=O)Oc3cc(Cl)cc(Cl)c3)cc2)CC1 [Compound 1, 3,5-dichlorophenyl 4-(1-methylcyclopropanecarbonylamino)benzoate]
67 nM | O=C(Oc1cc(Cl)cc(Cl)c1)c1ccc(NC(=O)C(F)(F)F)cc1 [Compound 11, 3,5-dichlorophenyl 4-(trifluoroacetylamino)benzoate]
260 nM | O=C(Nc1ccc(C(=O)Oc2cc(Cl)cc(Cl)c2)cc1)OCc1ccccc1 [Compound 34, 3,5-dichlorophenyl 4-(benzyloxycarbonylamino)benzoate]
16 nM | CCCNC(=O)Nc1ccc(C(=O)Oc2cc(Cl)cc(Cl)c2)cc1 [Compound 28, 3,5-dichlorophenyl 4-(3-propylureido)benzoate]
24 nM | CC(C)C(=O)Nc1ccc(C(=O)Oc2cc(Cl)cc(OC(=O)C=Cc3ccccc3)c2)cc1 [Compound 80, 3-cinnamoyloxy-5-chlorophenyl 4-(isobutanoylamino)benzoate]
570 nM | N=C(N)Nc1ccc(C(=O)Oc2cc(Cl)cc(Cl)c2)cc1 [Compound 95, reference compound]
21 nM | CC(C)C(=O)Nc1ccc(C(=O)Oc2cc(Cl)cc(OS(=O)(=O)Cc3ccccc3)c2)cc1 [Compound 84, 3-chloro-5-(phenylmethanesulfonyloxy)phenyl 4-(isobutanoylamino)benzoate]
18 nM | CC(C)(CCl)C(=O)Nc1ccc(C(=O)Oc2cc(Cl)cc(Cl)c2)cc1 [Compound 45, 3,5-dichlorophenyl 4-(3-chloro-2,2-dimethylpropanoylamino)benzoate]
3.5 nM | C=C(C)C(=O)Nc1ccc(C(=O)Oc2cc(Cl)cc(Cl)c2)cc1 [Compound 14, 3,5-dichlorophenyl 4-(2-methylpropenoylamino)benzoate]
47 nM | CC(C)(CC(=O)Nc1ccc(C(=O)Oc2cc(Cl)cc(Cl)c2)cc1)C(=O)O [Compound 41, 3,5-dichlorophenyl 4-(3,3-dimethylsuccinylamino)benzoate]
28 nM | O=C(Oc1cc(Cl)cc(Cl)c1)c1ccc(NC(=O)C(Cl)(Cl)Cl)cc1 [Compound 10, 3,5-dichlorophenyl 4-(trichloroacetylamino)benzoate]
6.4 nM | CC(C)(C)C(=O)Nc1ccc(C(=O)Oc2cc(Cl)cc(Cl)c2)cc1 [Compound 8, 3,5-dichlorophenyl 4-(pivaloylamino)benzoate]
5.3 nM | O=C(Cc1ccccc1)Nc1ccc(C(=O)Oc2cc(Cl)cc(Cl)c2)cc1 [Compound 9, 3,5-dichlorophenyl 4-(phenylacetylamino)benzoate]

More lines, now with the values behind:

Structure (SMILES) | IC50
CCS(=O)(=O)Oc1cc(Cl)cc(OC(=O)c2ccc(NC(=O)C(C)C)cc2)c1 [Compound 83, 3-chloro-5-(ethanesulfonyloxy)phenyl 4-(isobutanoylamino)benzoate] | 25 nM
CC(C)(C)C(=O)Nc1ccc(C(=O)Oc2cc(Cl)cc(OC(=O)C3CC3)c2)cc1 [Compound 57, 3-chloro-5-(cyclopropanecarbonyloxy)phenyl 4-(pivaloylamino)benzoate] | 2.9 nM
CC(=O)Oc1cc(Cl)cc(OC(=O)c2ccc(NC(=O)C(C)C)cc2)c1 [Compound 74, 3-acetoxy-5-chlorophenyl 4-(isobutanoylamino)benzoate] | 3.3 nM
CC(C)C(=O)Nc1ccc(C(=O)Oc2ccccc2[N+](=O)[O-])cc1 [Compound 48, 6-nitrophenyl 4-(isobutanoylamino)benzoate] | 16 nM
COC(=O)c1ccc([N+](=O)[O-])c(OC(=O)c2ccc(NC(=O)C(C)C)cc2)c1 [Compound 55, 3-methoxycarbonyl-6-nitrophenyl 4-(isobutanoylamino)benzoate] | 3.6 nM
O=C(Oc1cc(Cl)cc(Cl)c1)c1ccc(N2C(=O)CCC2=O)cc1 [Compound 23, 3,5-dichlorophenyl 4-(succinimidyl)benzoate] | 140 nM
CC(C)C(=O)Nc1ccc(C(=O)Oc2cc(Cl)cc(OC(=O)C3CCCCC3)c2)cc1 [Compound 79, 3-chloro-5-(cyclohexanecarbonyloxy)phenyl 4-(isobutanoylamino)benzoate] | 110 nM
COC(=O)c1ccc(Cl)cc1OC(=O)c1ccc(NC(=O)C(C)C)cc1 [Compound 63, 3-chloro-6-(methoxycarbonyl)phenyl 4-(isobutanoylamino)benzoate] | 97 nM
CC(C)C(=O)Nc1ccc(C(=O)Oc2cc(O)cc(Cl)c2)cc1 [Compound 73, 3-chloro-5-hydroxyphenyl 4-(isobutanoylamino)benzoate] | 110 nM
COc1ccc(COC(=O)c2ccc([N+](=O)[O-])c(OC(=O)c3ccc(NC(=O)C(C)C)cc3)c2)cc1 [Compound 56] | 8.4 nM
CC(C)C(=O)Nc1ccc(C(=O)Oc2cc(Cl)cc(OS(=O)(=O)c3cccs3)c2)cc1 [Compound 87, 3-chloro-5-(2-thiophenesulfonyloxy)phenyl 4-(isobutanoylamino)benzoate] | 19 nM
CC(C)C(=O)Nc1ccc(C(=O)Oc2cc(F)ccc2F)cc1 [Compound 68, 2,5-difluorophenyl 4-(isobutanoylamino)benzoate] | 110 nM
O=C(Oc1cc(Cl)cc(Cl)c1)c1ccc(NC(=O)C2CCC2)cc1 [Compound 16, 3,5-dichlorophenyl 4-(cyclobutanecarbonylamino)benzoate] | 9.2 nM
COc1cc(OC)cc(OC(=O)c2ccc(NC(=O)C(C)C)cc2)c1 [Compound 91, 3,5-dimethoxyphenyl 4-(isobutanoylamino)benzoate] | 300 nM
CC(C)(CC#N)C(=O)Nc1ccc(C(=O)Oc2cc(Cl)cc(Cl)c2)cc1 [Compound 46, 3,5-dichlorophenyl 4-(3-cyano-2,2-dimethylpropanoylamino)benzoate] | 6.7 nM
CCCCNC(=O)Nc1ccc(C(=O)Oc2cc(Cl)cc(Cl)c2)cc1 [Compound 29, 3,5-dichlorophenyl 4-(3-butylureido)benzoate] | 20 nM
CC(C)C(=O)Nc1ccc(C(=O)Oc2ccccc2C#N)cc1 [Compound 61, 2-cyanophenyl 4-(isobutanoylamino)benzoate] | 9.3 nM
CC(C)(C)OC(=O)Nc1ccc(C(=O)Oc2cc(C=O)ccc2[N+](=O)[O-])cc1 [Compound 47, 3-formyl-6-nitrophenyl 4-(tert-butoxycarbonylamino)benzoate] | 3.8 nM
CC(C)C(=O)Nc1ccc(C(=O)Oc2cc(F)cc(F)c2)cc1 [Compound 70, 3,5-difluorophenyl 4-(isobutanoylamino)benzoate] | 26 nM
CC(C)C(=O)Nc1ccc(C(=O)Oc2cc(Cl)ccc2C#N)cc1 [Compound 62, 3-chloro-6-cyanophenyl 4-(isobutanoylamino)benzoate] | 1.3 nM
CC(C)C(=O)Nc1ccc(C(=O)Oc2cc(Cl)cc(OC(=O)C3CC3)c2)cc1 [Compound 77, 3-chloro-5-(cyclopropanecarbonyloxy)phenyl 4-(isobutanoylamino)benzoate] | 3.8 nM
CC(C)C(=O)Nc1ccc(C(=O)Oc2cc(Cl)cc(OS(=O)(=O)C=Cc3ccccc3)c2)cc1 [Compound 86, 3-chloro-5-(β-styrenesulfonyloxy)phenyl 4-(isobutanoylamino)benzoate] | 24 nM
CC(C(=O)O)C(C)C(=O)Nc1ccc(C(=O)Oc2cc(Cl)cc(Cl)c2)cc1 (stereo not drawn) [Compound 42, 3,5-dichlorophenyl 4-(meso-2,3-dimethylsuccinylamino)benzoate] | 2.1 nM
CC(C)C(=O)Nc1ccc(C(=O)Oc2cccc(C(F)(F)F)c2)cc1 [Compound 94, 3-trifluoromethylphenyl 4-(isobutanoylamino)benzoate] | 240 nM
O=C(Oc1cc(Cl)cc(Cl)c1)c1ccc(NC(=O)C(F)(F)C(F)(F)F)cc1 [Compound 12, 3,5-dichlorophenyl 4-(pentafluoropropanoylamino)benzoate] | 10 nM
COc1cc(Cl)cc(OC(=O)c2ccc(NC(=O)C(C)C)cc2)c1 [Compound 90, 3-chloro-5-methoxyphenyl 4-(isobutanoylamino)benzoate] | 11 nM
CC(C)C(=O)Nc1ccc(C(=O)Oc2cccc([N+](=O)[O-])c2)cc1 [Compound 92, 3-nitrophenyl 4-(isobutanoylamino)benzoate] | 91 nM
O=C(Oc1cc(Cl)cc(Cl)c1)c1ccc(NC(=O)C2CCCCC2C(=O)O)cc1 (stereo not shown) [Compound 44, 3,5-dichlorophenyl 4-(2-hydroxycarbonylcyclohexanecarbonylamino)benzoate] | 18 nM
CC(C)C(=O)Nc1ccc(C(=O)Oc2cc(C=O)ccc2[N+](=O)[O-])cc1 [Compound 53, 3-formyl-6-nitrophenyl 4-(isobutanoylamino)benzoate] | 3.4 nM
CC(C)C(=O)Nc1ccc(C(=O)Oc2cc(Cl)cc(OS(C)(=O)=O)c2)cc1 [Compound 82, 3-chloro-5-(methanesulfonyloxy)phenyl 4-(isobutanoylamino)benzoate] | 18 nM
